Reference: ChEMBL document CHEMBL1146858 (Bioorg Med Chem Lett, 2006)

What was measured:
Coagulation factor X = Coagulation factor X (Homo sapiens, UniProt P00742); assay: Binding affinity to human F10a
[1] = target: Coagulation factor VII/tissue factor (Homo sapiens) (UniProt P08709+P13726); assay: Anticoagulant activity in plasma by PT assay; format: functional, cell-free
Prothrombin = Prothrombin (Homo sapiens, UniProt P00734); assay: Binding affinity to human F2a
[2] = Apparent permeability in Caco-2 cells; format: ADME, cell-based; settings: human
[3] = Clearance in dog; format: ADME, organism-based, Canis lupus familiaris; settings: in vivo
[4] = Volume of distribution in dog; format: ADME, organism-based, Canis lupus familiaris; settings: in vivo, read-out: Vdss
[5] = Half life in orally dosed dog; format: ADME, organism-based, Canis lupus familiaris; settings: in vivo, po
[6] = Oral bioavailability in orally dosed dog; format: ADME, organism-based, Canis lupus familiaris; settings: in vivo
Oryctolagus cuniculus [7] = organism: Oryctolagus cuniculus; assay: cells
[8] = Protein binding in plasma by equilibrium dialysis assay; format: ADME, cell-free; settings: read-out: PPB (converted)
Coagulation factor VII = target: T1, Coagulation factor VII (Homo sapiens, UniProt P08709); assay: Binding affinity to human f7a
T1 sequence (P08709 whole entry): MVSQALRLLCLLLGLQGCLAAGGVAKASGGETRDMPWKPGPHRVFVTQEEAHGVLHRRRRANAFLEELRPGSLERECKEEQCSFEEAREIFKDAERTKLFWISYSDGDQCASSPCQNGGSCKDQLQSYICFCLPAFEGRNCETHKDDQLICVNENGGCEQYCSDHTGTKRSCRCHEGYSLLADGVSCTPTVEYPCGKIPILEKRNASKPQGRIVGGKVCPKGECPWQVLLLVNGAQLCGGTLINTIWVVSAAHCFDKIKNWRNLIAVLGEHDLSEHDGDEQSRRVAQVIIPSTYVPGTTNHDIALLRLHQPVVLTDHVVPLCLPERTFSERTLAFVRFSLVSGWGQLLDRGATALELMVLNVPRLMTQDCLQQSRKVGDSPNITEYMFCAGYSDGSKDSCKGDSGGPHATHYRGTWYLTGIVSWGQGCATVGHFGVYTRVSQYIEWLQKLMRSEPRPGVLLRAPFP

Plasminogen = Plasminogen (Homo sapiens, UniProt P00747); assay: Binding affinity to human plasmin
Chymotrypsinogen B = Chymotrypsinogen B (Homo sapiens, UniProt P17538); assay: Binding affinity to human chymotrypsin
[9] = target: Tissue-type plasminogen activator (Homo sapiens, UniProt P00750); assay: Binding affinity to human tPA
Trypsin = Trypsin (Homo sapiens, UniProt P07477+P07478+P35030); assay: Binding affinity to human trypsin; format: protein assay
Plasma kallikrein = Plasma kallikrein (Homo sapiens, UniProt P03952); assay: Binding affinity to human plasma kallikrein; format: cell-free
[10] = target: Vitamin K-dependent protein C (Homo sapiens, UniProt P04070); assay: Binding affinity to human APC
Coagulation factor IX = Coagulation factor IX (Homo sapiens, UniProt P00740); assay: Binding affinity to human f9a
Oryctolagus cuniculus [11] = organism: Oryctolagus cuniculus

Coagulation factor X, sequence (P00742 41-179 limits assumed): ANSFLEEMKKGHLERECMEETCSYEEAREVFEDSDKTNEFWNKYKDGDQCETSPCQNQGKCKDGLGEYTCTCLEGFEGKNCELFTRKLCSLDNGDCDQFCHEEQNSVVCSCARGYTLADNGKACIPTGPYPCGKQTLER
Coagulation factor X, sequence (P00742 235-488 limits assumed): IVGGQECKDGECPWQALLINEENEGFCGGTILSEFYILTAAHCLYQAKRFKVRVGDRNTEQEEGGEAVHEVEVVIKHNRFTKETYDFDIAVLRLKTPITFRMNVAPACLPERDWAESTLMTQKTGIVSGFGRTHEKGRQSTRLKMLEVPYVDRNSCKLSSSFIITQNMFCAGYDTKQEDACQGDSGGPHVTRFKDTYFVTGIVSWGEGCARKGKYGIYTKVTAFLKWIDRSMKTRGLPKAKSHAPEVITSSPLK
Vitamin K-dependent protein C, sequence (P04070 43-197 limits assumed): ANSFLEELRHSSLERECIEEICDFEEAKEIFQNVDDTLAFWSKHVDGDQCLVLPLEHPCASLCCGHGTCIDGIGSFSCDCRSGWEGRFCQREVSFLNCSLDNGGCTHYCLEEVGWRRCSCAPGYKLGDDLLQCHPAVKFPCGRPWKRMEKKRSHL
Vitamin K-dependent protein C, sequence (P04070 212-461 limits assumed): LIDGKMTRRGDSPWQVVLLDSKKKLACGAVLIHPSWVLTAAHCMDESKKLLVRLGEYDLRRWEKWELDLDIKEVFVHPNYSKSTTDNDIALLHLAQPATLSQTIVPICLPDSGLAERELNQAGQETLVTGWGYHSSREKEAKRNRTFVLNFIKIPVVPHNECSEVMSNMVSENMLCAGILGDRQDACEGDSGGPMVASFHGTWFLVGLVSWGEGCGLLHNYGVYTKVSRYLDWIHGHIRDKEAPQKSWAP
Tissue-type plasminogen activator, sequence (P00750 whole entry): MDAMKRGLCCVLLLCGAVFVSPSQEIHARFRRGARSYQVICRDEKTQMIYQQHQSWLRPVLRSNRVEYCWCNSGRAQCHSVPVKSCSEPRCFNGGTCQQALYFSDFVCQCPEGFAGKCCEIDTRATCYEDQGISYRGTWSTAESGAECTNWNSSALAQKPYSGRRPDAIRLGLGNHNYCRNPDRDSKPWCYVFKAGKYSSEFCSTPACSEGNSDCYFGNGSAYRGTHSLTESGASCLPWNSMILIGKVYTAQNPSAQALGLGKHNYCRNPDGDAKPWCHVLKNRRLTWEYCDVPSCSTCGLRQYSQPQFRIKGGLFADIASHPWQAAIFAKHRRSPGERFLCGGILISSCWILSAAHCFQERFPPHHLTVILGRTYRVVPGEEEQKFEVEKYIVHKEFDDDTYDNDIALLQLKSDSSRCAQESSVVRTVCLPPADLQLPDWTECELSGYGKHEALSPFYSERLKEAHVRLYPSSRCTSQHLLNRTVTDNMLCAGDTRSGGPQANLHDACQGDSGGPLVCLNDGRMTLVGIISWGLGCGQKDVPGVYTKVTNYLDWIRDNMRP
Chymotrypsinogen B, sequence (P17538 34-164 limits assumed, other chains not shown): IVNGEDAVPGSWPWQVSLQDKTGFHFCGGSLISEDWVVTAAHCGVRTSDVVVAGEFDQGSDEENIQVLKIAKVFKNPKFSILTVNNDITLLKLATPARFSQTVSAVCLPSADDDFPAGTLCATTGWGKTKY
Chymotrypsinogen B, sequence (P17538 167-263 limits assumed, other chains not shown): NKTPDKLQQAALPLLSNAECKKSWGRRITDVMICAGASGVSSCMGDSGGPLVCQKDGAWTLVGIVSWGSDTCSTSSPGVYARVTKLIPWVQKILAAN
Coagulation factor IX, sequence (P00740 47-191 limits assumed): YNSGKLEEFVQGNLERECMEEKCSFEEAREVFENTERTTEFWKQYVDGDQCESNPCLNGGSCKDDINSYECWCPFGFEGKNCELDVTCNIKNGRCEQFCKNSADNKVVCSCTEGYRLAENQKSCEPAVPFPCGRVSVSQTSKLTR
Coagulation factor IX, sequence (P00740 227-461 limits assumed): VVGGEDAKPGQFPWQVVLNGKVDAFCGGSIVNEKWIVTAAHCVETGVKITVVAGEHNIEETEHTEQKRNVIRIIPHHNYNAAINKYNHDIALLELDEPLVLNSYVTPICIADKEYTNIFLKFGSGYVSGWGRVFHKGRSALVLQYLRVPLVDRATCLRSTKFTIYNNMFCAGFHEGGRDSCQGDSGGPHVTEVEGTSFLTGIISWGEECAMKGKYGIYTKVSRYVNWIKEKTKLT
Plasminogen, sequence (P00747 97-580 limits assumed): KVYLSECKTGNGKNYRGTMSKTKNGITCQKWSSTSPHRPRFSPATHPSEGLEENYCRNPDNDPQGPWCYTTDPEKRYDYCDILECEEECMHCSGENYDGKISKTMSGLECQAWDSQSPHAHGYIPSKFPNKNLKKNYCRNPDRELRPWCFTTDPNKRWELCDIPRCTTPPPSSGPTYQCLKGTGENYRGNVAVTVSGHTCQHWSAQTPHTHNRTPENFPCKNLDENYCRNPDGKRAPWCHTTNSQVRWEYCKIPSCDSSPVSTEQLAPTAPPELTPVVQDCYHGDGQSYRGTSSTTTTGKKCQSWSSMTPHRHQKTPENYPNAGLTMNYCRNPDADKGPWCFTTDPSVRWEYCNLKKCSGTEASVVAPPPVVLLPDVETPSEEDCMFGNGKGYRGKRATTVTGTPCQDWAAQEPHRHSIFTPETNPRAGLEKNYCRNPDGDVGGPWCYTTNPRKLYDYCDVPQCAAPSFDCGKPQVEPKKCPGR
Plasminogen, sequence (P00747 581-810 limits assumed): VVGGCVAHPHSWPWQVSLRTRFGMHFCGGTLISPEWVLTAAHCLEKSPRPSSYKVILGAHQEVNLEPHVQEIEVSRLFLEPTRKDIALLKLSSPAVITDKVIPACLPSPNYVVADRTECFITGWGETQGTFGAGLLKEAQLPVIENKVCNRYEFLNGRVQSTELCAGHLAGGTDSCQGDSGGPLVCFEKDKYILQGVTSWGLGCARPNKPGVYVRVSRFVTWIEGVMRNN
Plasma kallikrein, sequence (P03952 20-390 limits assumed): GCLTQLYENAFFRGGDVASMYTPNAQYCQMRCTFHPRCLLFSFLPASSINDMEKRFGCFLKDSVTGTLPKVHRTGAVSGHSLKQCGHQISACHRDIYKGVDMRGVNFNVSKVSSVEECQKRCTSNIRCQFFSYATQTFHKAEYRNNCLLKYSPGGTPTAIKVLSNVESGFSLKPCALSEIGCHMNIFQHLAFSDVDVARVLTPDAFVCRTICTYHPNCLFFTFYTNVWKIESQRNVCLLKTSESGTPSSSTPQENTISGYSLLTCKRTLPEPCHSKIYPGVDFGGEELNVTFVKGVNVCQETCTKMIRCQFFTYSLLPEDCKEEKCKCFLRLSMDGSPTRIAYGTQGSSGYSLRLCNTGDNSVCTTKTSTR
Plasma kallikrein, sequence (P03952 391-638 limits assumed): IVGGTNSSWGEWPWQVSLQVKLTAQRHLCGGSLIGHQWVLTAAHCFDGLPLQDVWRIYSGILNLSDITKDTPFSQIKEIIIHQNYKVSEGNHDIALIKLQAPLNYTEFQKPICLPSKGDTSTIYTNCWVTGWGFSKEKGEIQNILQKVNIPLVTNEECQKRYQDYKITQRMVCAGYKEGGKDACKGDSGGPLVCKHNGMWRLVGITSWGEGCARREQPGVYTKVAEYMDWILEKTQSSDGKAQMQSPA

Row | SMILES | Ki (Coagulation factor X) [nM] | 2PT [1] [µM] | Ki (Prothrombin) [nM] | clearance [3] [mL/min/kg] | Vd [4] [L/kg] | half-life [5] [min] | bioavailability [6] [%] | further results
1 | CN(C)Cc1ccccc1-c1ccc(N2CC=Cc3c(C(F)(F)F)nn(-c4ccc5onc(N)c5c4)c3C2=O)cc1 | 0.6 | 6.9 |  |  |  |  |  | 
2 | Nc1noc2ccc(-n3nc(C(F)(F)F)c4c3C(=O)N(c3ccc(-c5ccccc5CN5CCC(O)CC5)cc3)CC4)cc12 | 0.22 | 4.9 | 71 | 3.5 | 1.4 | 384 | 102 | Papp [2]: 0.4 ×10⁻⁶ cm/s; IC50 (Oryctolagus cuniculus [7]): 510 nM
3 | Cc1nn(-c2ccc3onc(N)c3c2)c2c1CCN(c1ccc(-c3ccccc3CN(C)C)cc1)C2=O | 0.55 | 2.1 | 380 | 53.3 | 6.4 | 96 | 13 | Papp [2]: 6.8 ×10⁻⁶ cm/s
4 | CN1CCN(Cc2ccccc2-c2ccc(N3CCc4c(C(F)(F)F)nn(-c5ccc6onc(N)c6c5)c4C3=O)cc2)CC1 | 0.71 | 31 | 230 |  |  |  |  | 
5 | Nc1noc2ccc(-n3nc(C(F)(F)F)c4c3C(=O)N(c3ccc(-c5ccccc5CN5CC[C@@H](O)C5)cc3F)CC4)cc12 | 0.16 | 8.4 | 72 | 5.83 | 2.8 | 354 | 81 | Papp [2]: 13 ×10⁻⁶ cm/s; fraction unbound [8]: < 0.02; IC50 (Oryctolagus cuniculus [7]): 600 nM
6 | CN(C)Cc1ccccc1-c1ccc(N2CCCc3c(C(F)(F)F)nn(-c4ccc5onc(N)c5c4)c3C2=O)cc1 | 0.81 | 4 |  |  |  |  |  | 
7 | Nc1noc2ccc(-n3nc(C(F)(F)F)c4c3C(=O)N(c3ccc(-c5ccccc5CN5CCCC5)cc3F)CC4)cc12 | 0.24 | 6.1 |  | 13.2 | 4.8 | 294 | 85 | fraction unbound [8]: < 0.02; IC50 (Oryctolagus cuniculus [7]): 1000 nM
8 | CN(C)Cc1ccccc1-c1ccc(N2CCc3c(C(F)(F)F)nn(-c4ccc5onc(N)c5c4)c3C2=O)c(F)c1 | 0.13 | 5.6 | 75 | 17.5 | 8.8 | 384 | 83 | Papp [2]: 8.9 ×10⁻⁶ cm/s; fraction unbound [8]: < 0.02; IC50 (Oryctolagus cuniculus [7]): 600 nM
9 | CN(C)Cc1ccccc1-c1ccc(NC(=O)c2cc(C(F)(F)F)nn2-c2ccc3onc(N)c3c2)c(F)c1 |  | 4.2 |  |  |  |  |  | 
10 | Cc1nn(-c2ccc3onc(N)c3c2)c2c1CCN(c1ccc(-c3ccccc3CN3CCCC3)cc1)C2=O | 0.31 | 1.4 | 120 | 31.7 | 3.3 | 102 | 10 | 
11 | CN(C)Cc1ccccc1-c1ccc(N2CNc3c(C(F)(F)F)nn(-c4ccc5onc(N)c5c4)c3C2=O)cc1 | 0.25 | 1.4 |  |  |  |  |  | 
12 | CN(C)Cc1ccccc1-c1ccc(N2CC=Cc3c(C(F)(F)F)nn(-c4ccc5onc(N)c5c4)c3C2=O)c(F)c1 | 0.6 | 15 |  |  |  |  |  | 
13 | CCN(CC)Cc1ccccc1-c1ccc(N2CCc3c(C(F)(F)F)nn(-c4ccc5onc(N)c5c4)c3C2=O)cc1 | 0.11 | 3 | 97 |  |  |  |  | 
14 | Cc1nn(-c2ccc3onc(N)c3c2)c2c1CCN(c1ccc(-c3ccccc3CN3CC[C@@H](O)C3)cc1F)C2=O | 0.34 | 4.9 | 250 | 15.7 | 1.1 | 66 | 62 | 
15 | Nc1noc2ccc(-n3nc(C(F)(F)F)c4c3C(=O)N(c3ccc(-c5ccccc5CN5CC[C@@H](O)C5)cc3)CC4)cc12 |  | 3.6 | 35 |  |  |  | 82 | Papp [2]: 1.7 ×10⁻⁶ cm/s; Ki (Coagulation factor VII): > 2800 nM; Ki (Plasminogen): > 2800 nM; Ki (Chymotrypsinogen B): > 2800 nM; Ki [9]: > 2800 nM; Ki (Trypsin): > 2.8 µM; Ki (Plasma kallikrein): > 2800 nM; Ki [10]: > 2800 nM; Ki (Coagulation factor IX): > 2800 nM; fraction unbound [8]: 0.026
16 | Cc1nn(-c2ccc3onc(N)c3c2)c2c1CCN(c1ccc(-c3ccccc3CN3CC[C@@H](O)C3)cc1)C2=O | 0.27 | 2.8 | 130 | 7 | 0.75 | 102 | 44 | Papp [2]: 6.2 ×10⁻⁶ cm/s; ID50 (Oryctolagus cuniculus [11]): 0.6 ug/hr.kg
17 | CNCc1ccccc1-c1ccc(N2CCc3c(C(F)(F)F)nn(-c4ccc5onc(N)c5c4)c3C2=O)cc1 | 0.34 | 3.7 | 150 | 27.7 | 9.7 | 444 | 67 | 
18 | Nc1noc2ccc(-n3nc(C(F)(F)F)c4c3C(=O)N(c3ccc(-c5ccccc5CN5CCOCC5)cc3)CC4)cc12 | 0.35 | 41 | 130 |  |  |  |  | 
19 | CCN(C)Cc1ccccc1-c1ccc(N2CCc3c(C(F)(F)F)nn(-c4ccc5onc(N)c5c4)c3C2=O)cc1 | < 0.1 | 3.2 | 57 |  |  |  |  | 
20 | CN(C)Cc1ccccc1-c1ccc(N2CCCc3c(C(F)(F)F)nn(-c4ccc5onc(N)c5c4)c3C2=O)c(F)c1 | 0.85 | 8.5 |  |  |  |  |  | 
21 | Nc1noc2ccc(-n3nc(C(F)(F)F)c4c3C(=O)N(c3ccc(-c5ccccc5CN5CCCC5)cc3)CC4)cc12 | 0.15 | 3.2 | 58 | 16.8 | 5 | 318 | 37 | 
22 | Nc1noc2ccc(-n3nc(C(F)(F)F)c4c3C(=O)N(c3ccc(-c5ccccc5CN5CC[C@H](O)C5)cc3)CC4)cc12 |  | 4.8 | 59 | 4.5 | 1.12 | 270 | 52 | 
23 | Nc1noc2ccc(-n3nc(C(F)(F)F)c4c3C(=O)N(c3ccc(-c5ccccc5CN5CCNCC5)cc3)CC4)cc12 | 0.64 | 14 | 280 |  |  |  |  | 
24 | CN(C)Cc1nccn1-c1ccc(NC(=O)c2cc(C(F)(F)F)nn2-c2ccc3onc(N)c3c2)c(F)c1 [RAZAXABAN] |  | 2.1 |  |  |  |  |  | Ki [10]: > 2300 nM
25 | CN(C)Cc1ccccc1-c1ccc(N2CCc3c(C(F)(F)F)nn(-c4ccc5onc(N)c5c4)c3C2=O)cc1 | 0.04 | 2.7 | 43 | 16.3 | 4.5 | 228 | 50 | Papp [2]: 4.7 ×10⁻⁶ cm/s; IC50 (Oryctolagus cuniculus [7]): 223 nM
